One experiment concerns KASUMI-1. The experiment is described as follows: cells. To be noted: read-out: IC50, cell proliferation. The experiment is classed as cell-based, human.
The test system of a further experiment is OCI-AML3. Briefly: cells. The experiment is classed as cell-based, human. As to conditions: read-out: IC50, cell proliferation.
For experiment [1], the system named is MV4;11. The experiment is classed as cell-based, human.
In experiment [2] the test system is K562. Type of experiment: cell-based, human.
For experiment [3], the system named is K562. Type of experiment: cell-based, human. The source holds these as a separate data set.
For experiment [4], the system named is MV4;11. The experiment is described as follows: cells. The experiment is classed as cell-based, human. As to conditions: read-out: IC50, cell proliferation.
The test system of the next experiment is Cl- channel (GABA-gated). The experiment is classed as binding.
The target of the next experiment is Ca2+ channel (N) (Rattus norvegicus, UniProt Q02294). The experiment is described as follows: biochemical. The experiment is classed as binding.
For the next experiment, the system named is GABA transporter. Type of experiment: binding.
Experiment [5] has as its system MV4;11. The experiment is described as follows: Genome-wide expression analysis / MetaCore, GSEA. The experiment is classed as cell-based, human. To be noted: MV4;11, 6-hour treatment, 500 nM.
In experiment [6] the test system is K562. Briefly: Genome-wide expression analysis / MetaCore, GSEA. Type of experiment: cell-based, human. As to conditions: K562, 6-hour treatment, 500 nM.

The results in this text go back to paper PMC5061470, “Promiscuous targeting of bromodomains by bromosporine identifies BET proteins as master regulators of primary transcription response in leukemia” (Science Advances, 2016).

Chain of Ca2+ channel (N) (Q02294 whole entry, looked up): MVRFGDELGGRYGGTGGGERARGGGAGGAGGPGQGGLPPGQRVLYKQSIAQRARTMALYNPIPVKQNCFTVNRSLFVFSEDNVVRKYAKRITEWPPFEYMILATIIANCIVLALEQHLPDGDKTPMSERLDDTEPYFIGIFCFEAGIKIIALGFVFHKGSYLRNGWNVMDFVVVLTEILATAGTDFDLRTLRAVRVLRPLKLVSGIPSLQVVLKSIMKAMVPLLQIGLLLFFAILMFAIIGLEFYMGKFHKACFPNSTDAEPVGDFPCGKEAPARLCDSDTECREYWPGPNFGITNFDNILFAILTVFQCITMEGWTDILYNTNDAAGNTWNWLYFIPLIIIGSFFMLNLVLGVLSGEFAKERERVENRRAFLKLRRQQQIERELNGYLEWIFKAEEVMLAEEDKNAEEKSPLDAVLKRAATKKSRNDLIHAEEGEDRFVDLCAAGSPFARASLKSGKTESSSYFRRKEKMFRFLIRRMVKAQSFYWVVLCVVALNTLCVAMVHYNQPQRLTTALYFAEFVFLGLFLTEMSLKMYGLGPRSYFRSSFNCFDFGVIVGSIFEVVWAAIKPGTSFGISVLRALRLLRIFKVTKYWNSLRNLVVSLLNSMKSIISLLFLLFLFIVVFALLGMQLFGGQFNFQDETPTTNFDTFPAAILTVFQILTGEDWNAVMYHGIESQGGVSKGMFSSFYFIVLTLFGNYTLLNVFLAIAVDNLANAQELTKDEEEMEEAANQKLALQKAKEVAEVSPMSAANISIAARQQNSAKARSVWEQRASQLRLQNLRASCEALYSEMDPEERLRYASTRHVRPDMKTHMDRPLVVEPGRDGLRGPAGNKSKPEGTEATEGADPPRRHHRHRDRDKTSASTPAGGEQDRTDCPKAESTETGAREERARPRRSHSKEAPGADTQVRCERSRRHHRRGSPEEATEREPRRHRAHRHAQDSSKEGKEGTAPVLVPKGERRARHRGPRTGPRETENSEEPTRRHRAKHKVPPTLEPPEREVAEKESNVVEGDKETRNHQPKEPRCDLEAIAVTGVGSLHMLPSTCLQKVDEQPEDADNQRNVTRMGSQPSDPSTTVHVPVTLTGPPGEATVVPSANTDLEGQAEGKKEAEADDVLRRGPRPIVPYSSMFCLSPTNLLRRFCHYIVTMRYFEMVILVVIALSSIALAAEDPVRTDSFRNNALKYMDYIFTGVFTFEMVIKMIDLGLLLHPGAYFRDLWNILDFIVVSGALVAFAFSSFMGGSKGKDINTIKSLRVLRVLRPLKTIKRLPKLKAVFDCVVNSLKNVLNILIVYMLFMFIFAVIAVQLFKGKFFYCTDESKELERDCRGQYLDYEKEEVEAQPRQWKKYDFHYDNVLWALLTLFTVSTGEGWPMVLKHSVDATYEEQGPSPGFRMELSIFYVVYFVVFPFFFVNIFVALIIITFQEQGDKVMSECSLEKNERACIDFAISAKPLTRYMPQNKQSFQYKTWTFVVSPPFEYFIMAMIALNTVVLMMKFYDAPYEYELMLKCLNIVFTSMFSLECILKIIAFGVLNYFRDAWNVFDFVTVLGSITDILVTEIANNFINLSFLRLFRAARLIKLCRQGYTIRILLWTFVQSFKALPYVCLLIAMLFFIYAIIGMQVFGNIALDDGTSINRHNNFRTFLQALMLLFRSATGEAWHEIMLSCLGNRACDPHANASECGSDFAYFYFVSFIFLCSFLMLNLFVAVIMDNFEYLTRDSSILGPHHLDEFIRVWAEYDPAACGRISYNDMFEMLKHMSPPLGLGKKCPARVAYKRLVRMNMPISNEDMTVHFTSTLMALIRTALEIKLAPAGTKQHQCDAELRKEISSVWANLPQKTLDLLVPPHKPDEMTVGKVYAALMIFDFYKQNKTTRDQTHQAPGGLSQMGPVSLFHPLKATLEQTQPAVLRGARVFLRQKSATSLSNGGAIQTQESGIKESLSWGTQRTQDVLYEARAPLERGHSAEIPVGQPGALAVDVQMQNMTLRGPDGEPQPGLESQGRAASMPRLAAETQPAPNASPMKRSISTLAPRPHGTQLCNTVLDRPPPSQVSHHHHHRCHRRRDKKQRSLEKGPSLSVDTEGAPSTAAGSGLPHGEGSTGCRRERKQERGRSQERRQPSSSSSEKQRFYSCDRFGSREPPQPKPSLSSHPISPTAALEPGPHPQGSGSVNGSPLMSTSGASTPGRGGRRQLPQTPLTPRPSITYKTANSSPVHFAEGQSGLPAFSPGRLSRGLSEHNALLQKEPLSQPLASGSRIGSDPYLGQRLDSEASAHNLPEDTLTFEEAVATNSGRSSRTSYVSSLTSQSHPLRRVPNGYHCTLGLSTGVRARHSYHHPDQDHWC

For (+)-JQ1 [reference compound], the IC50 in the experiment on KASUMI-1 was determined as 42.7 nM; in the experiment with OCI-AML3 it was 49.5 nM; in the experiment with MV4;11 [4], 80.2 nM. Further, the “effect on cell cycle” value in the experiment with MV4;11 [1] is listed as “distinct G1 arrest with reduced S-phase populations”; in the experiment with K562 [2], “little effect on cell cycle”. Further, the “effect on cell proliferation” value with K562 [3] was “No significant effect”.

As to `C=C(C)[C@@H]1[C@H]2OC(=O)[C@@H]1[C@]1(O)C[C@H]3O[C@]34C(=O)O[C@H]2[C@]14C` [picrotoxinin, reference compound], the IC50 in the experiment with Cl- channel (GABA-gated) amounted to 150 nM.

Consider `C[C@@H](O)[C@@H]1NC(=O)[C@H](Cc2ccc(O)cc2)NC(=O)[C@@H]2C[C@@H](O)CN2C(=O)[C@H](CC(N)=O)NC(=O)[C@@H]2CSSC[C@@H]3NC(=O)[C@H](CO)NC(=O)[C@H](CO)NC(=O)CNC(=O)[C@@H]4C[C@@H](O)CN4C(=O)[C@H](CO)NC(=O)[C@H](CCCCN)NC(=O)[C@@H](N)CSSC[C@H](NC(=O)[C@H](CSSC[C@@H](C(=O)N[C@@H](Cc4ccc(O)cc4)C(N)=O)NC(=O)[C@H](CCCN=C(N)N)NC(=O)[C@H](CCCCN)NC1=O)NC(=O)[C@H](CC(N)=O)NC(=O)[C@H](Cc1ccc(O)cc1)NC(=O)[C@H](CO)NC(=O)[C@H]([C@@H](C)O)NC(=O)[C@@H]1C[C@@H](O)CN1C(=O)[C@H](CO)NC3=O)C(=O)N[C@@H](CCCN=C(N)N)C(=O)N[C@@H](CO)C(=O)N2` [omega -conotoxin GVIA, reference compound], for which, on Ca2+ channel (N), the IC50 came out at 0.0024 nM.

In the case of `O=C(O)C1CCCNC1` (centres unmarked) [nipecotic acid, reference compound], in the experiment on GABA transporter, the IC50 was 1600 nM.

For `CCCOc1ccn2c(C(C)=O)cc(-c3ccccc3S(C)(=O)=O)c2c1` [GSK2801], the “effect on gene expression” value in the experiment on MV4;11 [5] and in the experiment with K562 [6] was “no significant effect” in each case.
